pIC50: −log10 of the molar value.
Columns and labels:
[1] = biological target: T1, human IsK protein (UniProt P15382+P70057); assay: cell-based; details: human IsK expressed in Xenopus oocytes; voltage jumps to -10 mV lasting 15 s; pH 7.5; room temperature; Hill equation
T1 construct: expressed in transfected cells; host or cells: Xenopus laevis oocytes injected with in vitro synthesized IsK RNA

[2] = system: K+ (ATP) channel; details: known compounds; cited from earlier work
[3] = system: IKs; details: cited from earlier work
[4] = system: IKr; details: class III antiarrhythmics; cited from earlier work

Structure (SMILES)	pIC50 [1]	also measured
CN([C@@H]1c2cc(OCc3ccccc3)ccc2OC(C)(C)[C@H]1O)S(C)(=O)=O (racemic) [Example 1, (±)-trans-N-(6-Benzyloxy-3-hydroxy-2,2-dimethylchroman-4-yl)-N-methylmethanesulfonamide]	6.70	
CC(=O)O[C@H]1[C@H](N(C)S(C)(=O)=O)c2cc(OCc3ccccc3)ccc2OC1(C)C (racemic) [Example 2, (±)-trans-N-(6-Benzyloxy-3-acetoxy-2,2-dimethylchroman-4-yl)-N-methyl-methanesulfonamide]	4.89	
CO[C@H]1[C@H](N(C)S(C)(=O)=O)c2cc(OCc3ccccc3)ccc2OC1(C)C (racemic) [Example 3, (±)-trans-N-(6-Benzyloxy-3-methoxy-2,2-dimethylchroman-4-yl)-N-methyl-methanesulfonamide]	5.19	
CCCCOc1ccc2c(c1)[C@@H](N(C)S(C)(=O)=O)[C@H](O)C(C)(C)O2 (racemic) [Example 5, (±)-trans-N-(6-Butoxy-3-hydroxy-2,2-dimethylchroman-4-yl)-N-methyl-methanesulfonamide]	6.60	
CCCCOc1ccc2c(c1)[C@@H](N(C)S(C)(=O)=O)[C@H](OC(C)=O)C(C)(C)O2 (racemic) [Example 6, (±)-trans-N-(3-Acetoxy-6-butoxy-2,2-dimethylchroman-4-yl)-N-methyl-methanesulfonamide]	< 5.00	
CCCCN([C@@H]1c2cc(OCc3ccccc3)ccc2OC(C)(C)[C@H]1O)S(C)(=O)=O (racemic) [Example 10, (±)-trans-N-(6-Benzyloxy-3-hydroxy-2,2-dimethylchroman-4-yl)-N-butyl-methanesulfonamide]	6.40	
COC(=O)CN([C@@H]1c2cc(OCc3ccccc3)ccc2OC(C)(C)[C@H]1O)S(C)(=O)=O (racemic) [Example 12, Methyl (±)-trans-[(6-benzyloxy-3-hydroxy-2,2-dimethylchroman-4-yl)-methanesulfonylamino]acetate]	6.10	
CCCCOc1ccc2c(c1)[C@@H](N(CC)S(C)(=O)=O)[C@H](O)C(C)(C)O2 (racemic) [Example 14, (±)-trans-N-(6-Butoxy-3-hydroxy-2,2-dimethylchroman-4-yl)-N-ethyl-methanesulfonamide]	6.70	
CC(=O)O[C@H]1[C@H](N(C)S(C)(=O)=O)c2cc(OCCCC(F)(F)F)ccc2OC1(C)C (racemic) [Example 21, (±)-trans-N-[3-Acetoxy-6-(4,4,4-trifluorobutoxy)-2,2-dimethylchroman-4-yl]-N-methyl-methanesulfonamide]	~5.00	
CC1(C)Oc2ccc(C#N)cc2[C@@H](N2CCCC2=O)[C@@H]1O (relative stereo) [cromakalim]		action on ATP-sensitive K+ channels [2]: openers of ATP-sensitive K^+ channels
CN(C1=CC(C)(C)Oc2ccc(OCc3ccccc3)cc21)S(C)(=O)=O [Example 4, N-(6-Benzyloxy-2,2-dimethyl-2H-chromen-4-yl)-N-methyl-methanesulfonamide]	5.80	
CCCCOc1ccc2c(c1)C(N(C)S(C)(=O)=O)=CC(C)(C)O2 [Example 7, N-(6-Butoxy-2,2-dimethyl-2H-chromen-4-yl)-N-methyl-methanesulfonamide]	5.80	
CCCOc1ccc2c(c1)C(N(C)S(C)(=O)=O)=CC(C)(C)O2 [Example 9, N-(6-Propoxy-2,2-dimethyl-2H-chromen-4-yl)-N-methyl-methanesulfonamide]	5.59	
CCCCN(C1=CC(C)(C)Oc2ccc(OCc3ccccc3)cc21)S(C)(=O)=O [Example 11]	5.80	
CCCCOc1ccc2c(c1)C(N(CC)S(C)(=O)=O)=CC(C)(C)O2 [Example 15, N-(6-Butoxy-2,2-dimethyl-2H-chromen-4-yl)-N-ethyl-methanesulfonamide]	5.89	
CCCCOc1ccc2c(c1)[C@@H](N(C)S(C)(=O)=O)[C@H](O)C(C)(C)O2 [Example 16, (3S, 4R)-(-)-N-(6-Butoxy-3-hydroxy-2,2-dimethylchroman-4-yl)-N-methyl-methanesulfonamide]	6.40	
CCS(=O)(=O)N(C)[C@@H]1c2cc(OCc3ccccc3)ccc2OC(C)(C)[C@H]1O [Example 17, (3S, 4R)-(-)-N-(6-Benzyloxy-3-hydroxy-2,2-dimethylchroman-4-yl)-N-methyl-ethanesulfonamide]	6.40	
CCS(=O)(=O)N(C)[C@H]1c2cc(OCCCC(F)(F)F)ccc2OC(C)(C)[C@@H]1O [Example 18, (3R, 4S)-(+)-N-[-3-Hydroxy-2,2-dimethyl-6-(4,4,4-trifluorobutoxy)chroman-4-yl]-N-methyl-ethanesulfonamide]	7.00	
CN(C1=CC(C)(C)Oc2ccc(OCCCC(F)(F)F)cc21)S(C)(=O)=O [Example 22, N-[6-(4,4,4-Trifluorobutoxy)-2,2-dimethyl-2H-chromen-4-yl]-N-methyl-methanesulfonamide]	6.22	
CC1(C)Oc2ccc(OCCCC(F)(F)F)cc2[C@H](NS(C)(=O)=O)[C@H]1O [Example 23a, (3R,4S)-N-[3-Hydroxy-2,2-dimethyl-6-(4,4,4-trifluoro-butoxy)-chroman-4-yl]-methanesulfonamide]	5.77	
CN1CCN(CCCCN2C(=O)CN(/N=C/c3ccc(-c4ccc(Cl)cc4)o3)C2=O)CC1 [azimilide]		blocking action on the IKs [3]: blocking action on the IKs
CC(C)NC[C@@H](O)c1ccc(NS(C)(=O)=O)cc1 [d-sotalol]		IKr block [4]: block IKr predominantly or exclusively

Source: US6008245A, “Sulfonamide-substituted benzopyran derivatives, processes for their preparation, their use as a medicament, and pharmaceutical preparations comprising them” (priority 1997, dated 1999)
